Legend:
Format in all cases: functional
[1] = test system: RAW264.7; assay: Anti-inflammatory activity in mouse RAW264.7 cells assessed as inhibition of LPS-induced COX-2 expression measured after 24 hrs by Western blot analysis relatively to control
[2] = test system: RAW264.7; assay: Anti-inflammatory activity in mouse RAW264.7 cells assessed as inhibition of LPS-induced Il-1beta secretion measured after 24 hrs by Western blot analysis relatively to control
[3] = test system: RAW264.7; assay: Potency index, ratio of ibuprofen to test compound for anti-inflammatory activity in mouse RAW264.7 cells assessed as inhibition of LPS-induced IL-beta secretion

| Compound | inhibition (INH) [1] | inhibition (INH) [2] | Ratio [3] |
| --- | --- | --- | --- |
| Cc1cccc(NS(=O)(=O)c2ccc([N+](=O)[O-])cc2)c1C(=O)O | 67% | 66% | 1.5 - 2.5 |
| Cc1ccc(S(=O)(=O)Nc2cccc(F)c2C(=O)O)cc1 | 3% | 82% | 1.5 - 2.5 |
| COc1ccc(NS(=O)(=O)c2ccc(C)cc2)c(C(=O)O)c1NS(=O)(=O)c1ccc(C)cc1 | 34% | -21% |  |
| Cc1ccc(S(=O)(=O)Nc2ccc(C)cc2C(=O)O)cc1 | 49% | 20% |  |
| Cc1cccc(NS(=O)(=O)c2ccc(C(F)(F)F)cc2)c1C(=O)O | 55% | 54% |  |
| Cc1ccc(S(=O)(=O)Nc2cc(C)cc(C)c2C(=O)O)cc1 | 52% | 45% |  |
| Cc1ccc(S(=O)(=O)Nc2cccc(Cl)c2C(=O)O)cc1 | -4% | 45% |  |
| CC(C)Cc1ccc(C(C)C(=O)O)cc1 (configuration not stated) [IBUPROFEN] | 54% | 35% |  |
| Cc1ccc(S(=O)(=O)Nc2ccc3ccccc3c2C(=O)O)cc1 | 34% | 9% |  |
| Cc1ccc(S(=O)(=O)Nc2cccc(C(F)(F)F)c2C(=O)O)cc1 | 69% | 21% |  |
| COc1cccc(NS(=O)(=O)c2ccc(C)cc2)c1C(=O)O | 51% | 66% | 1.5 - 2.5 |
| Cc1cccc(NS(=O)(=O)c2ccc(Br)cc2)c1C(=O)O | 36% | 98% |  |
| Cc1ccc(S(=O)(=O)Nc2cccc(C)c2C(=O)O)cc1 | 72% | 37% |  |
| Cc1cccc(NS(=O)(=O)c2ccccc2)c1C(=O)O | 22% | 52% |  |
| COc1ccc(S(=O)(=O)Nc2cccc(C)c2C(=O)O)cc1 | 51% | 88% |  |
| Cc1ccc(S(=O)(=O)Nc2cccc(Br)c2C(=O)O)cc1 | 18% | 42% |  |
| Cc1ccc(S(=O)(=O)Nc2cccc(NS(=O)(=O)c3ccc(C)cc3)c2C(=O)O)cc1 | 22% | -21% |  |
| Cc1cccc(NS(=O)(=O)c2ccccc2F)c1C(=O)O | 42% | 35% |  |
| Cc1cccc(NS(=O)(=O)c2ccc3ccccc3c2)c1C(=O)O | 33% | 6% |  |
| Cc1ccc(S(=O)(=O)Nc2cc(C)cc(NS(=O)(=O)c3ccc(C)cc3)c2C(=O)O)cc1 | -8% | 66% | 1.5 - 2.5 |
| Cc1ccc(S(=O)(=O)Nc2cccc([N+](=O)[O-])c2C(=O)O)cc1 | -1% | 81% | 1.5 - 2.5 |

From ChEMBL document CHEMBL4017459, “Synthesis and anti-inflammatory evaluation of N-sulfonyl anthranilic acids via Ir(III)-catalyzed C-H amidation of benzoic acids” (2017)
